Source: patent US9764046B2, “Labeling composition for intraocular tissue, labeling method of intraocular tissue, and screening method” (CANON KABUSHIKI KAISHA, priority 2008, dated 2017)
“And” between values parts separate entries of the source, which are not always exact repeats. Identical values can stand only once.

How the values were obtained:
[1] = tested on: intraocular tissue (retinal tissue incl. photoreceptor cell layer, vitreous body) of Zebrafish 7-day-old embryo; test: Staining of intraocular tissue of Zebrafish fry by exposure to staining liquid, ocular tissue section observed by confocal microscope; assay type: in vivo; conditions: Zebrafish 7 dpf fry, 1 μg/mL, 1 hour exposure, fixed ocular section
[2] = tested on: fundus (retina) of Zebrafish fry; test: In vivo intraocular observation of the fundus of living Zebrafish fry by confocal microscope; conditions: 1 μg/mL, 1 hour exposure;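 also: +++ photoreceptor and inner retinal layers stained ++ mainly photoreceptor layer − none seen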
Method: In an arbitrary well of a 24-well multiplate, were put 1 mL of Staining Liquid 2 and a fry of Zebrafish, and the plate was left to stand for 1 hour. A process of removing Staining Liquid 2 in the well and replacing it by 1 mL of distilled water was then performed 3 times.
The fry was then put in a 0.7% agarose solution and placed on a slide glass to observe the fundus of the fry through a confocal microscope.

[3] = Excitation and fluorescence wavelengths by fluorescence spectrometer FL4500; assay type: physicochemical; conditions: in nm (unit assumed)
[4] = aqueous solution: 10 mg/mL DMSO solution diluted to 1/500 with purified water (Examples 1 to 94)
[5] = values in a chloroform solution (Examples 95 to 106)

λem (fluorescence wavelength) [3, 4] | λex (excitation wavelength) [3, 4] | λem (fluorescence wavelength) [3, 5] | λex (excitation wavelength) [3, 5] | Compound | Staining ability [1] | Result of observation (staining ability, in vivo fundus) [2] | Stained site [1]
576 | 555 |  |  | CCN(CC)c1ccc2cc3c(oc2c1)c(C#N)c(=O)n1c2ccccc2nc31 [Compound 6] | ++ | ++ | 
592 | 477 |  |  | CC1(C)CCN2CCC(C)(C)c3c2c1cc1cc(-c2nc4ccccc4s2)c(=O)oc31 [Compound 8] | ++ | +++ | 
509 | 463 |  |  | CCCN(CCC)c1ccc2cc(-c3nc4ccccc4[nH]3)c(=O)oc2c1 [Compound 12] | ++ | ++ | 
619 | 541 |  |  | O=C(O)CCN1C(=O)/C(=C\c2ccc3c(c2)C2CCCC2N3c2ccccc2)SC1=S (stereo not drawn) [Compound 48] | ++ | ++ | 
721 | 591 |  |  | CC[n+]1c(C=c2sc(=Cc3ccc4c(c3)C3CCCC3N4c3ccc(C=C(c4ccccc4)c4ccccc4)cc3)c(=O)n2-c2ccccc2)sc2ccccc21.[Br-] (stereo not drawn) [Compound 82] | +++ |  | 2
682 | 605 |  |  | COc1ccc(N2c3ccc(/C=C/c4sc5c6ccccc6ccc5[n+]4CCC(=O)O)cc3C3CCCC32)cc1.[I-] (stereo not drawn) [Compound 83] | ++ |  | 2
718 | 599 |  |  | CCOC(=O)Cn1c(=Cc2sc3ccccc3[n+]2C)sc(=Cc2ccc3c(c2)C2CCCC2N3c2ccc(C=C(c3ccccc3)c3ccccc3)cc2)c1=O.[Br-] (stereo not drawn) [Compound 84] | ++ |  | 2
503 | 353 |  |  | CC[n+]1c(C=C2SCC(=O)N2c2ccccc2)sc2ccccc21.[Br-] [Compound 85] | ++ |  | 2
671 | 623 |  |  | CCN1C(=O)/C(=c2\s/c(=C/c3ccc4c(c3)C3CCCC3N4CC)c(=O)n2CC)SC1=S (stereo not drawn) [Compound 86] | ++ |  | 
551 | 466 |  |  | CCCCNc1ccc2c3c(cccc13)C(=O)N(CCCC)C2=O [Compound 87] | ++ |  | 
503 | 450 |  |  | CCOC(=O)c1cc(/C=C/C=C/c2sc3ccccc3[n+]2CC(=O)O)c2cccccc1-2.[Br-] [Compound 88] | ++ |  | 1
578 and 590 | 509 and 528 |  |  | CCN(CC)c1ccc2c(-c3ccc(S(=O)(=O)NCCC(=O)O)cc3S(=O)(=O)O)c3ccc(=[N+](CC)CC)cc-3oc2c1.[Na+] [Compound 95] | ++ |  | 
680 | 530 |  |  | C=CCN1C(=O)/C(=c2\s/c(=C/c3ccc4c(c3)C3CCCC3N4c3ccc(OC)cc3)c(=O)n2CC(=O)O)SC1=S (stereo not drawn) [Compound 97] | ∘ |  | 
690 | 510 |  |  | C=CCN1C(=O)/C(=C2\S/C(=C/c3ccc4c(c3)C3CCCC3N4c3ccccc3)CN2CC(=O)O)SC1=S (stereo not drawn) [Compound 98] | ∘ |  | 
700 | 590 |  |  | CCn1c(=C2SC(=S)N(CC(=O)O)C2=O)sc(=Cc2ccc3c(c2)C2CCCC2N3c2ccccc2)c1=O (stereo not drawn) [Compound 102] | ∘ |  | 1
490 | 380 |  |  | O=C1/C(=C/c2ccc3c(c2)C2CCCC2N3c2ccccc2)Oc2ccc(I)cc21 (stereo not drawn) [Compound 107] | ∘ |  | 
 |  | 581 | 538 | CCOc1ccc(Nc2ccc3c4c(cc(=O)n3C)-c3ccccc3C(=O)c24)cc1 [Compound 117] | ∘ |  | 
 |  | 634 | 540 | CCCCc1ccc(Nc2ccc3c4c(cc(=O)n3C)-c3ccccc3C(=O)c24)cc1 [Compound 118] | ∘ |  | 

Further lines, the compound ahead of its results:

Compound | λem (fluorescence wavelength) [3, 4] | λex (excitation wavelength) [3, 4] | λem (fluorescence wavelength) [3, 5] | λex (excitation wavelength) [3, 5] | Staining ability [1] | Result of observation (staining ability, in vivo fundus) [2] | Stained site [1]
CCN(CC)c1ccc2cc(-c3nc4ccccc4s3)c(=O)oc2c1 [Compound 7] | 555 | 469 |  |  | ++ | +++ | 
CCN(CC)c1ccc2cc(-c3nc4ccccc4[nH]3)c(=O)oc2c1 [Compound 9] | 514 | 464 |  |  | ++ | ++ | 
CCN(CC)c1ccc2cc(-c3nc4cc(Cl)ccc4o3)c(=O)oc2c1 [Compound 11] | 476 | 422 |  |  | +++ | +++ | 
CCN(CC)c1ccc2cc(-c3nc4ccc(C)cc4o3)c(=O)oc2c1 [Compound 13] | 504 | 472 |  |  | +++ | +++ | 
COc1ccc2cc(N3c4ccc(/C=C5\SC(=S)N(CC(=O)O)C5=O)cc4[C@@H]4CCC[C@@H]43)ccc2c1 [Compound 36] | 661 | 566 |  |  | +++ | ++ | 
CCN1C(=O)/C(=c2/s/c(=C/c3ccc4c(c3)C3CCCC3N4c3ccc(C=C(c4ccccc4)c4ccccc4)cc3)c(=O)n2CC(=O)O)SC1=S (stereo not drawn) [Compound 80] | 673 | 551 |  |  | ++ |  | 
CC/N=c1\cc2oc3cc(NCC)c(C)cc3c(-c3ccccc3C(=O)CC)c-2cc1C [Compound 90] | 550 | 528 |  |  | ++ |  | 
C[n+]1c(C=c2sc(=Cc3ccc4c(c3)C3CCCC3N4c3ccc(C=C(c4ccccc4)c4ccccc4)cc3)c(=O)n2CC(=O)O)sc2ccccc21.[Br-] (stereo not drawn) [Compound 101] | 760 | 560 |  |  | ∘ |  | 1
CSc1cccc(N2c3ccc(/C=C4/SC(=S)N(CC(=O)O)C4=O)cc3C3CCCC32)c1 (stereo not drawn) [Compound 103] | 640 | 520 |  |  | ∘ |  | 
O=C(O)CN1C(=O)/C(=C2C=C/C(=C\c3ccc4c(c3)C3CCCC3N4c3ccccc3)C\2)SC1=S (stereo not drawn) [Compound 106] | 650 | 510 |  |  | ∘ |  | 
COc1ccc(N2c3ccc(/C=C4\Oc5ccc(I)cc5C4=O)cc3C3CCCC32)cc1 (stereo not drawn) [Compound 108] | 680 | 530 |  |  | ∘ |  | 
Cc1cc(C)cc(Nc2ccc3c4c(cc(=O)n3C)-c3ccccc3C(=O)c24)c1 [Compound 109] | 630 | 540 |  |  | ∘ |  | 
Cn1c(=O)cc2c3c(c(Nc4ccccc4)ccc31)C(=O)c1ccccc1-2 [Compound 110] |  |  | 614 | 538 | ∘ |  | 
Nc1c(Br)cc(O)c2c1C(=O)c1ccccc1C2=O [Compound 111] |  |  | 589 | 527 | ∘ |  | 
Nc1c(OCCCOc2ccccc2)cc(O)c2c1C(=O)c1ccccc1C2=O [Compound 112] |  |  | 568 | 513 | ∘ |  | 
COC(=O)CCc1ccc(Oc2cc(O)c3c(c2N)C(=O)c2ccccc2C3=O)c(C)c1 [Compound 113] |  |  | 575 | 514 | ∘ |  | 
Nc1c(OCCOC(=O)Oc2ccccc2)cc(O)c2c1C(=O)c1ccccc1C2=O [Compound 114] |  |  | 568 | 513 | ∘ |  | 
Cc1cccc(Nc2ccc3c4c(cc(=O)n3C)-c3ccccc3C(=O)c24)c1 [Compound 115] |  |  | 614 | 540 | ∘ |  | 
COc1ccc(Nc2ccc3c4c(cc(=O)n3C)-c3ccccc3C(=O)c24)cc1 [Compound 116] |  |  | 584 | 537 | ∘ |  | 
Cc1ccc(Nc2ccc3c4c(cc(=O)n3C)-c3ccccc3C(=O)c24)c(C)c1 [Compound 120] |  |  | 609 | 537 | ∘ |  | 
Cc1ccc(C)c(Nc2ccc3c4c(cc(=O)n3C)-c3ccccc3C(=O)c24)c1 [Compound 121] |  |  | 609 | 537 | ∘ |  | 
Cc1cccc(C)c1Nc1ccc2c3c(cc(=O)n2C)-c2ccccc2C(=O)c13 [Compound 122] |  |  | 582 | 534 | ∘ |  | 
O=C1OC2(c3ccc(O)cc3Oc3cc(O)ccc32)c2ccccc21 [Fluorescein, fluorescein, reference compound] |  |  |  |  | − | − | 
